# In PubChem BioAssay (NCI):
#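 1) Cells in 96-well plates. 2) Compound, 48 h, 5 concentrations. 3) Linear interpolation between surrounding doses. 4) Unreached endpoint = highest concentration. GI50 = concentration required for 50% inhibition of growth. TGI: concentration producing complete growth inhibition.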
# Assays:
# Assay in all cases: NCI tumour cell line growth inhibition, 48 h
# [1] = test system: SK-MEL-2 melanoma
# [2] = test system: SF-539 CNS
# [3] = test system: HT29 colon
# [4] = test system: UO-31 renal
# [5] = test system: MOLT-4 leukemia
# [6] = test system: MDA-MB-435
# [7] = test system: SF-268 CNS
# [8] = test system: OVCAR-3 ovarian
# [9] = test system: OVCAR-8 ovarian
# [10] = test system: HS 578T breast
# [11] = test system: HCT-15 colon
# [12] = test system: A498 renal
# [13] = test system: NCI-H226 lung
# [14] = test system: ACHN renal
# [15] = test system: CCRF-CEM leukemia
# [16] = test system: NCI-H23 lung
# [17] = test system: IGROV1 ovarian
# [18] = test system: K-562 leukemia
# [19] = test system: BT-549 breast
# [20] = test system: MDA-MB-231 breast
# [21] = test system: DU-145 prostate
# [22] = test system: T-47D breast
# [23] = test system: MCF7 breast
# [24] = test system: M14 melanoma
# [25] = test system: SR leukemia
# [26] = test system: OVCAR-4 ovarian
# [27] = test system: UACC-62 melanoma
# [28] = test system: HCT-116 colon
smiles,measurement,setting,value
COc1ccccc1-c1nccc(COc2ccccc2C[C@@H](Oc2ncnc3sc(-c4ccc(F)cc4)c(-c4ccc(OCCN5CCN(C)CC5)c(Cl)c4C)c23)C(=O)O)n1,GI50,[1],< 0.0114 µM
same,TGI,[1],0.0367 µM
same,GI50,[2],1.21 µM
same,TGI,[2],2.59 µM
same,GI50,[3],2.65 µM
same,TGI,[3],7.09 µM
same,GI50,[4],6.12 µM
same,TGI,[4],17.5 µM
same,GI50,[5],0.0436 µM
same,TGI,[5],1.54 µM
same,GI50,[6],0.45 µM
same,TGI,[6],2.21 µM
same,GI50,[7],3.69 µM
same,TGI,[7],17.5 µM
same,GI50,[8],2.51 µM
same,TGI,[8],6.99 µM
same,GI50,[9],2.9 µM
same,TGI,[9],> 28.4 µM
same,GI50,[10],0.515 µM
same,TGI,[10],3.29 µM
same,GI50,[11],5.82 µM
same,TGI,[11],16.4 µM
same,TGI,[12],0.522 µM
same,GI50,[13],3 µM
same,TGI,[13],10.9 µM
same,GI50,[14],5.07 µM
same,TGI,[14],15.3 µM
same,GI50,[15],0.804 µM
same,TGI,[15],> 35.7 µM
same,GI50,[16],1.11 µM
same,TGI,[16],3.84 µM
same,GI50,[17],2.27 µM
same,TGI,[17],6.08 µM
same,GI50,[18],3.01 µM
same,TGI,[18],> 33.6 µM
same,GI50,[19],1.03 µM
same,TGI,[19],2.59 µM
same,GI50,[20],1.61 µM
same,TGI,[20],3.29 µM
same,GI50,[21],5.84 µM
same,TGI,[21],13.9 µM
same,GI50,[22],3.49 µM
same,TGI,[22],23 µM
same,GI50,[23],0.0786 µM
same,TGI,[23],1.95 µM
same,GI50,[24],1.73 µM
same,TGI,[24],4.05 µM
same,GI50,[25],0.034 µM
same,TGI,[25],0.714 µM
same,GI50,[26],3.55 µM
same,TGI,[26],14.6 µM
same,GI50,[27],0.0761 µM
same,TGI,[27],1.41 µM
same,GI50,[28],2.43 µM
same,TGI,[28],6.55 µM
